Marks after values point to notes of the source that are not given here.
Key:
Format in all cases: in vivo, Sprague-Dawley (SD) rats
Details in all cases: CCl4-treated rats, 8 weeks
[1] = test system: CCl4-induced liver injury in rats; test: Weights of liver, kidney and spleen relative to body weight after CCl4-induced liver injury
Description: (§1) The animal model was performed with five-week-old Sprague-Dawley (SD) rats purchased from BioLasco Taiwan Co., Ltd. Healthy rats weighing 220-270 g were chosen for experiment after observing for 2 weeks in the laboratory animal room. The rats were randomly divided into 6 groups (12 rats/group): normal (gp. A); control groups including model control (gp. B) and positive control (gp. C, animals receiving silymarin); treatment groups including animals receiving 300 mg/kg of cyclohexenone (gp. D), 1000 mg/kg of cyclohexenone (gp. E), and 3000 mg/kg of cyclohexenone (gp. F), as indicated in Table 1. Only normal group was not poisoned with CCl4. The body weights were recorded to calculate the dosage. […] It helps to remove toxins from liver cells by either neutralizing the toxicity of toxic compounds or competing with the binding sites in liver. It is a potent antioxidant, protects the liver from free radicals. It has been widely studied for treating various types of liver injury in animals and clinical trials. The beneficial effects on liver protection have made silymarin a good medicine for liver diseases and a drug in positive control group for the animal model of liver injury.
(§2) Rats in normal group (group A) were fed with corn oil (Sigma chemical co.) by means of stomach tubes. Carbon tetrachloride (Shimakyu, Osaka, Japan) was administered to groups B to F via stomach tubes twice weekly (every Tuesday and Thursday afternoon) for 8 weeks, at a dose of 2 ml/kg of body weight, diluted with corn oil. Silymarin was prepared with saline in an amount of 200 mg/kg of body weight and was fed to rats of group C via a stomach tube. Cyclohexenone prepared from example 1 was mixed with saline, and fed in the amounts of 300 mg/kg, 1000 mg/kg and 3000 mg/kg of body weight to rats of group D to F via stomach tubes. The total feeding volume was estimated in the ratio of 10 ml/kg of body weight to groups C to F five days a week (every morning) for 8 weeks. The body weights of rats and the amounts of food intake in rats for each group were shown in FIG. 1 and FIG. 2, respectively.
All rats were sacrificed at the end of the 8th week of experiment. The weights of liver, kidney and spleen were recovered and weighted and compared with the body weights to calculate the ratios and observe the effects of cyclohexenone from Antrodia camphorata to CCl4 treatment. All values are expressed as mean ±SD, which were evaluated using One-way Analysis of Variance. Those with significant differences were further tested with the Least Significant Difference Test (LSD) or Student t-test to compare cyclohexenone treatment groups and normal groups, positive control and model groups. P<0.05 was selected as criterion for statistical significance in all cases.

[2] = test system: CCl4 induced liver injury in rats; test: Serum indicators of liver function (ALT, AST, cholesterol)
Description: as §1, §2
All rats were sacrificed at the end of the 8th week of experiment, blood samples were collected from abdominal aorta for assessing liver biochemical parameters. Five ml of blood were transferred to a tube and centrifuged at 775×g for 15 min. 0.5 ml of serum was analyzed on an Express plus automatic clinical chemistry analyzer (Chiron diagnostics corporation, OH, USA) with commercial kits of ALT (Bayer diagnostics, Cat No. E36941), AST (Bayer diagnostics, Cat No. E37041) and cholesterol (Bayer diagnostics, Cat No. E33940). All values are expressed as mean ±SD, which were evaluated using One-way Analysis of Variance. Those with significant differences were further tested with the Least Significant Difference Test (LSD) or Student t-test to compare cyclohexenone treatment groups and normal groups, positive control and model groups. P<0.05 was selected as criterion for statistical significance in all cases.

[3] = test system: CCl4 treated, liver injury model animals; test: Antioxidant enzymes in liver (GSH, GSHPx, catalase, SOD)
Description: as §1, §2
The liver stored at −80° C. as described above was immersed in PBS buffer (phosphate buffered saline solution, pH 7.4) containing 0.16 mg/ml heparin. Red blood cells were removed from the tissue. Liver was prepared as 1.0 g tissue/10 mL buffer homogenates in fresh, chilled 50 mM phosphate, 1 mM EDTA (pH 6-7) buffer using a Polytron homogenizer (setting 5, PT 10 probe, Brinkmann Instruments, Westbury, N.Y.) for one min. The solution was centrifuged at 10,000×g for 15 min at 4° C. Protein concentration was determined with a BCA protein assay kit (Pierce, Ill., USA) at 550 nm using an enzyme linked immunosorbent assay (ELISA) reader (MAX ELISA Reader, Quant, Bio-Tek Instrument, Vermont, USA). Commercial kits of glutathione (GSH), glutathione peroxidase (GSHPx), catalase (CAT), superoxide dismutase (SOD) (Glutathione Assay Kit, Cat No. 703002; Glutathione Peroxidase Assay Kit, Cat No. 703102; Catalase Assay Kit, Cat No. 707002; Superoxide Dismutase Assay Kit, Cat No. 706002) were purchased from Cayman Chemical Company (MI.USA) and assayed by reading at 405 nm, 340 nm, 540 nm and 450 nm using an ELISA reader. Deprotein step was carried out for all the assays mention above except SOD assay. Proteins were precipitated by mixing with equal volume of 10% metaphosphoric acid (w/v), vortex-mixed evenly, centrifuged at 2,000×g for 2 min. The supernatant was removed for enzyme assay. All values are expressed as mean ±SD, which were evaluated using One-way Analysis of Variance. Those with significant differences were further tested with the Least Significant Difference Test (LSD) or Student t-test to compare cyclohexenone treatment groups and normal groups, positive control and model groups. P<0.05 was selected as criterion for statistical significance in all cases.

[4] = cyclohexenone 1000 mg/kg, listed as cyclohexenone

COC1=C(OC)C(O)C(C/C=C(\C)CC/C=C(\C)CCC=C(C)C)C(C)C1=O (centres unmarked) [Cyclohexenone from Antrodia camphorata, 4-hydroxy-2,3-dimethoxy-6-methyl-5(3,7,11-trimethyl-dodeca-2,6,10-trienyl)-cyclohex-2-enone]
kidney to body weight ratio ([1]; cyclohexenone 300 mg/kg): 0.68 ± 0.06 %
liver to body weight ratio ([1]; cyclohexenone 300 mg/kg): 3.29 ± 0.35%
spleen to body weight ratio ([1]; cyclohexenone 300 mg/kg): 0.20 ± 0.05 %
kidney to body weight ratio ([1]; cyclohexenone 1000 mg/kg): 0.69 ± 0.13%
liver to body weight ratio ([1]; cyclohexenone 1000 mg/kg): 3.20 ± 0.47 %
spleen to body weight ratio ([1]; cyclohexenone 1000 mg/kg): 0.22 ± 0.06 %
kidney to body weight ratio ([1]; cyclohexenone 3000 mg/kg): 0.73 ± 0.08 %
liver to body weight ratio ([1]; cyclohexenone 3000 mg/kg): 3.65 ± 0.53 %
spleen to body weight ratio ([1]; cyclohexenone 3000 mg/kg): 0.30 ± 0.10 %
ALT ([2]; cyclohexenone 300 mg/kg): 226.6 ± 138.7 a U/L
AST ([2]; cyclohexenone 300 mg/kg): 323.4 ± 189.0 U/L
Cholesterol ([2]; cyclohexenone 300 mg/kg): 63.7 ± 15.1 mg/dL
ALT ([2]; cyclohexenone 1000 mg/kg): 181.7 ± 78.4 a U/L
AST ([2]; cyclohexenone 1000 mg/kg): 283.2 ± 144.2 U/L
Cholesterol ([2]; cyclohexenone 1000 mg/kg): 69.6 ± 14.8 mg/dL
ALT [2, 4]: 181.7±78.4 U/L
AST [2, 4]: 283.2±144.2 U/L
ALT ([2]; cyclohexenone 3000 mg/kg): 206.0 ± 98.4 a U/L
AST ([2]; cyclohexenone 3000 mg/kg): 311.7 ± 99.6 U/L
Cholesterol ([2]; cyclohexenone 3000 mg/kg): 62.1 ± 16.2 mg/dL
Catalase ([3]; cyclohexenone 300 mg/kg): 9.1 ± 1.0 U/mg protein
GSH (Glutathione activity) ([3]; cyclohexenone 300 mg/kg): 30.3 ± 3.2 uM/mg protein
GSHPx (glutathione peroxidase activity) ([3]; cyclohexenone 300 mg/kg): 9.6 ± 1.7 nmol/min/mL
SOD ([3]; cyclohexenone 300 mg/kg): 0.47 U/mg protein
Catalase ([3]; cyclohexenone 1000 mg/kg): 10.1 ± 1.4 U/mg protein
GSH (Glutathione activity) ([3]; cyclohexenone 1000 mg/kg): 25.2 ± 1.8*^a uM/mg protein
GSHPx (glutathione peroxidase activity) ([3]; cyclohexenone 1000 mg/kg): 11.2 ± 3.4 nmol/min/mL
SOD ([3]; cyclohexenone 1000 mg/kg): 0.52 ± 0.28 U/mg protein
Catalase ([3]; cyclohexenone 3000 mg/kg): 9.8 ± 0.9 U/mg protein
GSH (Glutathione activity) ([3]; cyclohexenone 3000 mg/kg): 26.7 ± 4.3*^a uM/mg protein
GSHPx (glutathione peroxidase activity) ([3]; cyclohexenone 3000 mg/kg): 10.6 ± 3.1 nmol/min/mL
SOD ([3]; cyclohexenone 3000 mg/kg): 0.73 ± 0.23 U/mg protein
